Data on 84 compounds can be found in the RepoRT retention time repository (doi:10.1021/acs.analchem.1c00972).

SMILES strings stand for the structures.

A short description of this series: RP, Waters ACQUITY UPLC BEH C18, 100 × 1 mm, 1.7 µm, 50 °C, 0.3 mL/min, estimated dead time 0.17 min; A: water + 10 mM ammonium bicarbonate; B: 10% water + 90% methanol + 10 mM ammonium bicarbonate; gradient (min/%B) 0/0 15/100 21/100 22/0 30/0. The following applies: stereoisomer not certain.
On to `CCC(CO)NCCNC(CC)CO` (centres undefined) [Ethambutol], for which the LC retention time was 8.12 min. With `CCOP(=S)(OCC)SCSP(=S)(OCC)OCC` [Ethion] the figure was 17.3 min; with `CCOP(=S)(OCC)SCn1nnc2ccccc2c1=O` [Ethyl azinphos], 15 min; with `c1ccc(OCCOc2ccccc2)cc1` [Ethylene glycol diphenylether], 13.5 min. The result for `CC1(c2ccc(Oc3ccccc3)cc2)OC(=O)N(Nc2ccccc2)C1=O` (centres undefined) [Famoxadone] reads 16.1 min; that for `N#CC(CCc1ccc(Cl)cc1)(Cn1cncn1)c1ccccc1` (centres undefined) [Fenbuconazole], 15.5 min; that for `CCC(C)c1ccccc1OC(=O)NC` (centres undefined) [Fenobucarb], 15 min. The result for `N#Cc1c[nH]cc1-c1cccc2c1OC(F)(F)O2` [Fludioxonil] reads 14.4 min. Take `O=S(=O)(O)c1ccccc1C=Cc1ccc(-c2ccc(C=Cc3ccccc3S(=O)(=O)O)cc2)cc1` [Fluorescent brightener 351]: the LC retention time is 13.5 min. Regarding `COC(=O)c1ccc(C(F)(F)F)nc1S(=O)(=O)NC(=O)Nc1nc(OC)cc(OC)n1` [Flupyrsulfuron-methyl], the LC retention time is 10.4 min. The result for `CC1COCc2cc3c(cc21)C(C)(C)C(C)C3(C)C` (centres undefined) [Galaxolide] reads 18.2 min; that for `Nc1ccn(C2OC(CO)C(O)C2(F)F)c(=O)n1` (centres undefined) [Gemcitabine], 3.38 min. Take `CC1C(c2ccc(Cl)cc2)SC(=O)N1C(=O)NC1CCCCC1` (centres undefined) [Hexythiazox]: the LC retention time is 17.6 min. With `COc1ccc2c3c1OC1C(=O)CCC4C(C2)N(C)CCC314` (centres undefined) [Hydrocodone] the figure was 12.1 min; with `NC1=NCCN1Cc1ccc(Cl)nc1` [Imidacloprid-guanidine], 6.72 min; with `O=C1NCCN1Cc1ccc(Cl)nc1` [Imidacloprid-urea], 8.68 min. On to `CC(=O)N(CC(O)CO)c1c(I)c(C(=O)NCC(O)CO)c(I)c(C(=O)NCC(O)CO)c1I` (centres undefined) [Iohexol], for which the LC retention time was 5.51 min. With `CSc1nc(N)nc(NC(C)(C)C)n1` [Irgarol-Metabolit 1 (Terbutryn-desethyl)] the figure was 13.4 min. The result for `CSc1nc(NC2CC2)nc(NC(C)(C)C)n1` [Irgarol] reads 15.4 min. With `C[N+](C)(C)C[C@H](O)CC(=O)[O-]` [L-Carnitin] the figure was 9.28 min. As for `O=c1[nH]c2c(c(=O)n1C1CCCCC1)CCC2` [Lenacil], the LC retention time is 13.1 min. In the case of `CCN(CC)CC(=O)Nc1c(C)cccc1C` [Lidocaine], the LC retention time is 14.9 min. For the compound `CCCCCC=CCC=CCCCCCCCC(=O)O` [Linoleic acid], the LC retention time was 17.6 min. For `CC#Cc1cc(C)nc(Nc2ccccc2)n1` [Mepanipyrim], the LC retention time is 15 min.

Consider `CCC1(c2cccc(O)c2)CCCCN(C)C1` (centres undefined) [Meptazinole], for which the LC retention time was 14.4 min. Take `C#CC1(O)CCC2C3CCc4cc(OC)ccc4C3CCC21C` (centres undefined) [Mestranol]: the LC retention time is 14.3 min.

Consider `Cc1nnc(-c2ccccc2)c(=O)n1N` [Metamitron], for which the LC retention time is 9 min. The result for `Cc1cccc(C)c1N(Cn1cccn1)C(=O)CCl` [Metazachlor] reads 13.3 min; that for `CNC(=O)Oc1cc(C)c(SC)c(C)c1` [Methiocarb], 14.3 min; that for `COC(=O)c1ccccc1S(N)(=O)=O` [Methyl 2-(aminosulfonyl)benzoate], 8.1 min. With `CN(CCO)CCO` [Methyl diethanolamine] the figure was 2.65 min; with `Cn1sc(Cl)cc1=O` [Methylchloroisothiazolinone], 6.48 min; with `CCN(CC)CCNC(=O)c1cc(Cl)c(N)cc1OC` [Metoclopramide], 12.3 min. For `CSc1nnc(C(C)(C)C)c(=O)[nH]1` [Metribuzin-desamino], the LC retention time is 11.6 min. For the compound `CNC(=O)C=C(C)OP(=O)(OC)OC` [Monocrotophos (Crisodin)], the LC retention time was 8.11 min.

Take `CN(C)C(=O)Nc1ccc(Cl)cc1` [Monuron]: the LC retention time is 11.3 min. With `O=C(O)CC[C@@H](C(=O)O)N(CC(=O)O)CC(=O)O` [N,N-Bis(carboxymethyl)-L-glutamic acid], the LC retention time is 13 min. As for `CCCCCCCCCCCC[N+](C)(C)[O-]` [N,N-Dimethyldodecylamine N-oxide], the LC retention time was 16.8 min. The result for `CC(=O)Nc1c(C)n(C)n(-c2ccccc2)c1=O` [N-Acetyl-4-aminoantipyrine] reads 7.94 min; that for `CCNc1ccccc1` [N-Ethylaniline], 12.2 min. With `Cc1c(NC=O)c(=O)n(-c2ccccc2)n1C` [N-Formyl-4-aminoantipyrine] the figure was 7.81 min; with `CC(=O)N(C)c1ccccc1` [N-Methylacetanilide], 11.2 min; with `CCN(CC)C(=O)C(C)Oc1cccc2ccccc12` (centres undefined) [Napropamide], 15.1 min. `CNC(=O)CSP(=O)(OC)OC` [Omethoate]: the LC retention time is 6.12 min.

Consider `NC(=O)N1c2ccccc2CC(=O)c2ccccc21` [Oxcarbazepine], for which the LC retention time was 11.7 min. With `CCC(CC)Nc1c([N+](=O)[O-])cc(C)c(C)c1[N+](=O)[O-]` [Pendimethalin] the figure was 17.5 min; with `CCOCCN(C(=O)CCl)C(=C(C)C)c1ccccc1` [Pethoxamid], 15.3 min; with `CCOc1ccc(NC(C)=O)cc1` [Phenacetin], 9.9 min. `O=C1CC=Cc2ncc3ccccc3c21` [Phenanthridinon]: the LC retention time was 13.2 min.

As for `COC(=O)Nc1cccc(OC(=O)Nc2cccc(C)c2)c1` [Phenmedipham], the LC retention time is 13.6 min. Consider `CCCCOCCOCCOCc1cc2c(cc1CCC)OCO2` [Piperonyl butoxide], for which the LC retention time is 15.3 min.

For `CNC(=O)Oc1cc(C)cc(C(C)C)c1` [Promecarb], the LC retention time was 15 min. With `CC(C)N(C(=O)C(=O)O)c1ccccc1` [Propachlor oxanilic acid (OA)], the LC retention time is 11.3 min.

In the case of `CC(C)N(C(=O)CCl)c1ccccc1` [Propachlor], the LC retention time is 13.3 min.

As to `CNC(=O)Oc1ccccc1OC(C)C` [Propoxur (baygon)], the LC retention time is 11.9 min. The result for `C#CC(C)(C)NC(=O)c1cc(Cl)cc(Cl)c1` [Propyzamide] reads 14.6 min; that for `CCCN(CCC)C(=O)SCc1ccccc1` [Prosulfocarb], 16.9 min; that for `CC(C)(C)c1ccc(CSc2cnn(C(C)(C)C)c(=O)c2Cl)cc1` [Pyridaben], 18.3 min. Consider `Cc1cc(C)nc(Nc2ccccc2)n1` [Pyrimethanil], for which the LC retention time was 14.2 min. The result for `CC(COc1ccc(Oc2ccccc2)cc1)Oc1ccccn1` (centres undefined) [Pyriproxyfen] reads 17.4 min; that for `On1ccccc1=S` [Pyrithione], 9.52 min. With `CNC(=C[N+](=O)[O-])NCCSCc1ccc(CN(C)C)o1` [Ranitidine] the figure was 10.2 min.

Take `Oc1ccc(C=Cc2cc(O)cc(O)c2)cc1` [Resveratrol]: the LC retention time is 15.4 min. In the case of `CC(N)C12CC3CC(CC(C3)C1)C2` (centres undefined) [Rimantadin], the LC retention time is 13.9 min. With `CCNc1nc(NCC)nc(OC)n1` [Simeton] the figure was 11.6 min. Turning to `CC(C)NCC(O)c1ccc(NS(C)(=O)=O)cc1` (centres undefined) [Sotalol], the LC retention time is 7.74 min.

Consider `CC(=O)SC1CC2=CC(=O)CCC2(C)C2CCC3(C)C(CCC34CCC(=O)O4)C12` (centres undefined) [Spironolactone], for which the LC retention time was 14.2 min. Take `Cc1cc(C)nc(NS(=O)(=O)c2ccc(N)cc2)n1` [Sulfamethazine]: the LC retention time was 7.4 min. Turning to `Cc1nnc(NS(=O)(=O)c2ccc(N)cc2)s1` [Sulfamethizol], the LC retention time is 5.94 min. On to `Nc1ccc(S(=O)(=O)Nc2ccccn2)cc1` [Sulfapyridine], for which the LC retention time was 6.64 min. As to `C=CC1C(OC2OC(CO)C(O)C(O)C2O)OC=C2C(=O)OCCC21` (centres undefined) [Sweroside], the LC retention time is 8.69 min. Turning to `N#CSCSc1nc2ccccc2s1` [TCMTB], the LC retention time was 14.1 min. As for `CC(C)N(Cc1ccccc1)C(=O)C(C)(C)C` [Tebutam], the LC retention time was 14.3 min. The result for `CC(Cn1cnc2c(N)ncnc21)OCP(=O)(O)O` (centres undefined) [Tenofovir] reads 2.02 min; that for `CCNc1nc(NC(C)(C)C)nc(OC)n1` [Terbumeton], 14.3 min. With `CCNc1nc(Cl)nc(NC(C)(C)C)n1` [Terbuthylazine] the figure was 14.4 min; with `CC12CCC(=O)C=C1CCC1C2CCC2(C)C(O)CCC12` (centres undefined) [Testosterone], 14.6 min; with `FC(F)C(F)(F)OCC(Cn1cncn1)c1ccc(Cl)cc1Cl` (centres undefined) [Tetraconazole], 15.3 min. With `Cn1c(=O)c2[nH]cnc2n(C)c1=O` [Theophyllin] the figure was 6.11 min.

Turning to `CC(=O)c1cc2c(cc1C)C(C)(C)C(C)CC2(C)C` (centres undefined) [Tonalide], the LC retention time is 18.2 min.

For `Cc1c(C(=O)c2c[nH]n(C)c2=O)ccc(S(C)(=O)=O)c1C1=NOCC1` [Topramezone], the LC retention time was 7.42 min. The result for `COc1cccc(C2(O)CCCCC2CN(C)C)c1` (centres undefined) [Tramadol] reads 14 min; that for `CS(=O)(=O)OCC(O)C(O)COS(C)(=O)=O` (centres undefined) [Treosulfan], 3.77 min; that for `CCCCOCCOCCOCCO` [Triethylene Glycol Monobutyl Ether], 11.5 min.
